Experimental data as given in PMC12030284, “Anti-Breast Cancer Properties and In Vivo Safety Profile of a Bis-Carbazole Derivative” (Pharmaceutics, 2025).
Each block holds one compound with its values, some of them ahead of it.

Legend:
caspase-8 = assay: Caspase-Glo 8 assay; type: cell-based, human; conditions: MDA-MB-231 cells, 0.3 µM, 24 h, versus DMSO-treated cells
Description: (§1) Caspases-3/7, -8, and -9 activities were determined using the Caspase-Glo® 3/7, 8, and 9 Assay Systems (Promega Corporation, Madison, WI, USA) as previously described.

[1] = Hydrolytic stability test by 1H NMR; type: physicochemical
Description: ^1H NMR spectra were recorded at 298 K on a Bruker Avance 400 spectrometer operating at 400 MHz (^1H) and referred to the residual proton deuterated solvent peaks (^1H: (CD3)2SO, δ 2.50).
The hydrolytic chemical stability is an important step in early drug discovery for ensuring the potential development of compounds useful in therapy. […]

Balb/c mice = assay: In vivo safety study, one-week intraperitoneal administration; parameters: species or system mouse; conditions: 20 mg/kg i.p.
Description: Animals: The study utilized male Balb/c mice aged 6–8 weeks, with weights ranging from 22 to 26 g. These mice were sourced from a reputable supplier and maintained in a certified pathogen-free facility. They were housed in polycarbonate cages under controlled environmental conditions (temperature: 20–22 °C; humidity: 40–60%) with a 12 h light/dark cycle. Mice had ad libitum access to filtered water and a standard rodent chow diet, ensuring their nutritional needs were met throughout the study.
Preparation of Test Item: The investigational solution that contains the compound 1 was prepared before administration to ensure its stability and efficacy. The preparation involved dissolving compound 1 in a solvent mixture comprising 5% ethanol and Cremophor, diluted in 95% phosphate-buffered saline (PBS). […] All solutions were prepared in a sterile environment to minimize the risk of contamination.
Experimental Design: Mice were randomly assigned to one of two experimental groups to eliminate bias in treatment effects. Group 1 (negative control) consisted of six mice that received intraperitoneal injections of the vehicle solvent (5% ethanol–Cremophor in 95% PBS). Group 2 (compound 1 treatment group) comprised seven mice receiving compound 1 at a dosage of 20 mg/kg body weight, administered via intraperitoneal injection. The dosage was selected based on preliminary dose–response studies ensuring safety and efficacy.
Treatment Protocol: The treatment regimen involved administering injections every two days over a one-week period, culminating in a total of three injections per mouse. This schedule was designed to maintain consistent therapeutic levels of compound 1 in the bloodstream, providing sufficient time for both pharmacological effects and assessment of any potential adverse reactions.
Assessment Parameters: Behavioral observations were meticulously recorded on a daily basis throughout the treatment period. Trained personnel monitored the mice for signs of toxicity or any deviations from normal behavior, including changes in activity levels, grooming patterns, and feeding behavior [35]. Body weight was measured at baseline prior to treatment, immediately before each injection, and at the conclusion of the treatment period to assess any potential effects of compound 1 on growth and overall health.
After the treatment phase, mice were humanely euthanized using approved methods to minimize distress. Major organs, including the spleen, liver, lungs, brain, heart, and kidneys, were carefully excised, weighed, and subjected to morphological examination to identify any structural abnormalities or pathological changes. The organ coefficients were calculated using the following formula:Organ Coefficient (mg/10 g) = 10 × […]/weight of the mouse.
Blood samples were collected post-euthanasia using heparinized tubes to prevent coagulation. Following collection, samples were centrifuged at 1500 rpm for 7 min to separate the plasma, which was then used for biochemical analysis. A clinical chemistry analyzer measured various parameters, including transaminases (AST, ALT), creatinine, uric acid, and key electrolytes (sodium, potassium, chloride, calcium, and phosphorus), alongside alkaline phosphatase levels. Hematological evaluations were performed, including red blood cell (RBC) counts, hemoglobin (HB) levels, hematocrit (HCT), mean corpuscular hemoglobin (MCH), and white blood cell (WBC) counts.

caspase-9 = assay: Caspase-Glo 9 assay; type: cell-based, human; conditions: MDA-MB-231 cells, 0.3 µM, 24 h, versus DMSO-treated cells
Description: as §1

[2] = system: MCF-7 human breast cancer cells; assay: MTT cell viability assay, MCF-7; type: cell-based; conditions: for IC50: Homo sapiens, MCF7, MTT, 72 h, mean ± SD of three experiments; for SI MCF-7: ratio of IC50 values for normal (MCF-10A) and cancer cells (MCF-7)
Description: (§2) The three cell lines adopted in this work (MCF-7, MDA-MB-231 and MCF-10A) were obtained from the American Type Culture Collection (ATCC, Manassas, VA, USA). MCF-7 human breast cancer cells were cultured in Dulbecco’s modified Eagle’s medium/nutrient mixture Ham F-12 (DMEM/F12), added with 10% fetal bovine serum (FBS) and 100 U mL^−1 penicillin/streptomycin. MDA-MB-231 human breast cancer cells were maintained in DMEM/F12 added with 5% FBS, 1% L-glutamine and 100 U mL^−1 penicillin/streptomycin. MCF-10A human mammary epithelial cells were cultured in DMEM/F12 medium added with 5% horse serum (HS, Thermo Fisher Scientific, Milan, Italy), 100 U mL^−1 penicillin/streptomycin, 0.5 mg mL^−1 hydrocortisone, 20 ng mL^−1 human epidermal growth factor (hEGF), 10 mg mL^−1 insulin, and 0.1 mg mL^−1 cholera enterotoxin (Sigma–Aldrich, Milan, Italy). Cells were cultured at 37 °C in a humidified atmosphere (95% air and 5% CO2) and periodically screened for checking contamination.
(§3) The 3-(4,5-dimethylthiazol-2-y1)-2,5-diphenyltetrazolium Bromide (MTT, Sigma–Aldrich, Milan, Italy) assay was used for determining cell viability. Cells were seeded on forty-eight well plates and cultured in a complete medium. Next, cells were serum-deprived (24 h). Then, cells were exposed to the tested compounds in phenol-red-free medium added with 1% of serum for 72 h. After medium removal, MTT solution was added to each well (0.5 mg/mL) and incubated at 37 °C (2 h). Cells were lysed (DMSO), and the optical density was measured (570 nm) using a microplate reader. Mean absorbance was reported as a percentage versus control, and IC50 values were calculated using GraphPad Prism 8 software (version 8.4.3., GraphPad Inc., San Diego, CA, USA). The selectivity index was obtained by the ratio of IC50 values calculated for normal and cancer cells. Data represent three independent experiments; standard deviations (SD) were reported.

[3] = system: MDA-MB-231 human breast cancer cells; assay: MTT cell viability assay, MDA-MB-231; type: cell-based; conditions: for IC50: Homo sapiens, MDA-MB-231, MTT, 72 h, mean ± SD of three experiments
Description: as §2, §3

Bid = Bid immunofluorescence and mitochondria staining; type: cell-based, human; conditions: MDA-MB-231 cells, 0.3 µM, 24 h
Description: (§4) Cells grown on glass coverslips in full medium were serum-deprived for 24 h and exposed to 1 for 24 h at its IC50 value concentration. Cells were PBS-washed and fixed (cold methanol, 15 min, −20 °C), then primary antibody in blocking solution was added (4 °C/overnight), as described. The mouse anti-Bid (sc-373939) and anti-β-Actin (69879) and the rabbit anti-β Tubulin (9104) were obtained from Santa Cruz Biotechnology and employed at a 1:100 dilution. Coverslips were washed thrice with PBS, then the secondary antibody Alexa Fluor® 568 conjugate goat-anti-mouse and Alexa Fluor® 488 conjugate goat-anti-rabbit (1:500, Thermo Fisher Scientific, Waltham, MA, USA) was added. Nuclei were DAPI (Sigma Aldrich, Mila, Italy) stained (10 min, 0.2 μg/mL) and PBS washed thrice. For mitochondrial staining, cells were pre-incubated with prewarmed (37 °C) MitoTracker® Deep Red FM probe solution (MitoTracker® Mitochondrion-Selective Probes, Invitrogen European Headquarters, Paisley PA4 9RF, UK) for 20 min (fluorescence excitation = 644, fluorescence emission = 665). A fluorescence microscope (Leica DM 6000) and LAS-X software (Leica Application Suite X, 3.5.7.23225) were used to acquire and process all images.

caspase-3/7 = assay: Caspase-Glo 3/7 assay; type: cell-based, human; conditions: MDA-MB-231 cells, 0.3 µM, 24 h, versus DMSO-treated cells
Description: as §1

[4] = system: actin network in MDA-MB-231 cells; assay: β-actin immunofluorescence; type: cell-based, human; conditions: 0.3 µM, 24 h
Description: as §4

[5] = system: microtubule network in MDA-MB-231 cells; assay: β-tubulin immunofluorescence; type: cell-based, human; conditions: 24 h
Description: as §4

MDA-MB-231 cells = assay: TUNEL assay (nuclear DNA damage / apoptosis); type: cell-based, human; conditions: 0.3 µM, 24 h
Description: The TUNEL assay was used for apoptosis detection, according to the manufacturer’s instructions (CF^TM488A TUNEL Assay Apoptosis Detection Kit, Biotium, Hayward, CA, USA), with some modifications (ref). Shortly, cells were grown on glass coverslips, then treated with 1 at its IC50 value. After that, they were PBS washed thrice, then methanol-fixed (−20 °C, 15 min). Cells were fixed and incubated with the enzyme and, next, counterstained with DAPI (0.2 mg mL^−1) (10 min, room temperature). Cells were washed three times with cold PBS; the mounting solution was added and observed and imaged using a fluorescence microscope (Leica DM6000, Leica Microsystems Srl, Milan, I-20090, Italy; 20× magnification) with excitation/emission wavelength maxima of 490 nm/515 nm (CF^TM488A) or 350 nm/460 nm (DAPI). Images represent two independent experiments, and representative fields were shown.

tubulin = assay: In vitro tubulin polymerization assay; type: biochemical; conditions: for final OD350 value of tubulin polymerization: control reaction (DMSO) about 0.41
Description: The tubulin polymerization inhibition was detected using the in vitro Tubulin Polymerization Assay Kit (EMD Millipore Corporation, Burlington, MA, USA), following the procedure previously published. Briefly, polymerization reactions were performed in 70 µL final volumes (60 µL of the 60 µM tubulin in 1xPB-GTP and 10 µL of the test substance dissolved in 1xPB-GTP). Paclitaxel and Vinblastine (both at 10 µM) and 1 (1 µM) were dissolved in DMSO. The turbidity variation was measured every 30 s at 350 nm for 90 min. Turbidity (absorbance) readings were used to determine the extent of polymerization [% inhibition = (1 − A350 sample/A350 control) × 100].

[6] = system: MCF-10A human mammary epithelial cells; assay: MTT cell viability assay, MCF-10A; type: cell-based; conditions: 72 h, normal cells, mean ± SD of three experiments
Description: as §2, §3

SMILES: Cc1cc(C=NN=Cc2cc(C)c3[nH]c4ccc(Br)cc4c3c2C)c(C)c2c1[nH]c1ccc(Br)cc12 [Compound 1, N,N’-bis-(6-bromo-1,4-dimethyl-9H-carbazol-3-ylmethylene)-hydrazine]
- increase of caspase-8 activity (caspase-8): about 60%
- hydrolytic stability (1H NMR spectra changes) ([1]; DMSO-d6/D2O (90:10), 37 °C, 24 h): no changes were recorded
- stability in the solid state ([1]; solid state): stable in the solid state even years after synthesis
- behavior (Balb/c mice; one week): normal behavioral patterns
- lung coefficient versus negative control (Balb/c mice; one week): notable increase
- toxic effects related to treatment (Balb/c mice; one week): no observable toxic effects
- body weight change versus negative control (Balb/c mice; one week, p > 0.05): no significant differences
- hematological parameters (WBC, RBC, HB, HCT, MCV, MCH, MCHC, platelet counts) versus control (Balb/c mice; one week, p > 0.05): no significant differences
- organ weights (spleen, liver, brain, heart, kidney, lung) versus negative control (Balb/c mice; one week, p > 0.05): no significant differences
- serum AST, ALT, creatinine, uric acid and electrolyte profiles versus control (Balb/c mice; one week, p > 0.05): comparable
- organ weight coefficient Brain (Balb/c mice; three injections over one week): 0.13 ± 0.03 10× g (organ)/g(animal)
- organ weight coefficient Heart (Balb/c mice; three injections over one week): 0.06 ± 0.01 10× g (organ)/g(animal)
- organ weight coefficient Kidney (Balb/c mice; three injections over one week): 0.07 ± 0.01 10× g (organ)/g(animal)
- organ weight coefficient Liver (Balb/c mice; three injections over one week): 0.54 ± 0.03 10× g (organ)/g(animal)
- organ weight coefficient Lung (Balb/c mice; three injections over one week): 0.11 ± 0.01 10× g (organ)/g(animal)
- organ weight coefficient Spleen (Balb/c mice; three injections over one week): 0.07 ± 0.02 10× g (organ)/g(animal)
- increase of caspase-9 activity (caspase-9): 40%
- IC50 [2]: 600 ± 300 nM
- SI MCF-7 [2]: >166.7
- IC50 [3]: 300 ± 200 nM
- SI MDA-MB-231 ([3]; ratio of IC50 values for normal (MCF-10A) and cancer cells (MDA-MB-231)): >333.3
- Bid localization (Bid): net translocation of Bid into the mitochondrial compartment
- increase of caspase-3 and -7 activity (caspase-3/7): about 70%
- actin network morphology [4]: formation of thicker actin bundles
- microtubule network morphology ([5]; 0.3 µM): net disorganization of the microtubule network
- TUNEL staining (nuclear DNA damage) (MDA-MB-231 cells): TUNEL-positive
- effect on tubulin polymerization reaction (tubulin; 1 µM): acts as a microtubule stabilizer
- final OD350 value of tubulin polymerization (tubulin; 1 µM): 0.48
- IC50 [6]: > 100000 nM

SMILES: Cc1c2ccncc2c(C)c2c1[nH]c1ccccc12 [Ellipticine]
- IC50 [2]: 1300 ± 200 nM
- SI MCF-7 [2]: 0.9
- IC50 [3]: 1900 ± 100 nM
- IC50 [6]: 1200 ± 300 nM

- IC50 [2]: 13 nM
- IC50 [3]: 19 nM
SMILES: CC(=O)O[C@H]1C(=O)[C@@]2(C)[C@H]([C@H](OC(=O)c3ccccc3)[C@]3(O)C[C@H](OC(=O)[C@H](O)[C@@H](NC(=O)c4ccccc4)c4ccccc4)C(C)=C1C3(C)C)[C@]1(OC(C)=O)CO[C@@H]1C[C@@H]2O [Paclitaxel]
- SI MCF-7 [2]: 33.7
- microtubule network morphology ([5]; 1 µM): massive formation of tubulin bundles and bulker fibers
- final OD350 value of tubulin polymerization (tubulin; 10 µM): about 0.46
- IC50 [6]: 640 nM

- IC50 [2]: 36.8 nM
- IC50 [3]: 130 nM
SMILES: CC[C@]1(O)C[C@@H]2CN(CCc3c([nH]c4ccccc34)[C@@](C(=O)OC)(c3cc4c(cc3OC)N(C)[C@H]3[C@@](O)(C(=O)OC)[C@H](OC(C)=O)[C@]5(CC)C=CCN6CC[C@]43[C@@H]65)C2)C1 [Vinblastine]
- SI MCF-7 [2]: 0.13
- microtubule network morphology ([5]; 1 µM): accumulate in disorganized dotted structures (i.e., crystals)
- effect on tubulin polymerization reaction (tubulin; 10 µM): strongly inhibited
- time to reach the steady state of tubulin polymerization (tubulin; 10 µM): 35 to 40 min
- final OD350 value of tubulin polymerization (tubulin; 10 µM): about 0.2
- IC50 [6]: 17.2 nM
